Converted amounts (≈) assume the structure as drawn.

Common to all, as to assay type: functional
Experiment [1] concerns Spodoptera exigua. The experiment is described as follows: Resistance factor, LC50 for Spodoptera exigua F22 neonate larvae to LC50 for Spodoptera exigua F0 neonate larvae.
Experiment [2] concerns Spodoptera exigua. The experiment is described as follows: Resistance factor, LC50 for Spodoptera exigua F0 neonate larvae to LC50 for Spodoptera exigua SS neonate larvae.
Experiment [3] has as its system Spodoptera exigua. In words: Insecticidal activity against Spodoptera exigua F0 neonate larvae assessed as mortality at 27 +/- 1 degC, 60 to 70% RH measured after 72 hr. The note with it: F0, 72 h.
The test system of experiment [4] is Spodoptera exigua. In words: Insecticidal activity against Spodoptera exigua F22 neonate larvae assessed as mortality at 27 +/- 1 degC, 60 to 70% RH measured after 72 hr. To be noted: F22, 72 h.
The test system of experiment [5] is Spodoptera exigua. The experiment is described as follows: Resistance factor, LC50 for Spodoptera exigua F22 neonate larvae to LC50 for Spodoptera exigua SS neonate larvae.
Experiment [6] has as its system Spodoptera exigua. The experiment is described as follows: Resistance factor, LC50 for Spodoptera exigua F11 neonate larvae to LC50 for Spodoptera exigua SS neonate larvae.
Experiment [7] relates to Spodoptera exigua. The experiment is described as follows: Resistance factor, LC50 for Spodoptera exigua F11 neonate larvae to LC50 for Spodoptera exigua F0 neonate larvae.
Experiment [8] deals with Spodoptera exigua. In words: Insecticidal activity against susceptible strain Spodoptera exigua SS neonate larvae assessed as mortality at 27 +/- 1 degC, 60 to 70% RH measured after 72 hr.
Experiment [9] concerns Spodoptera exigua. In words: Insecticidal activity against Spodoptera exigua F11 neonate larvae assessed as mortality at 27 +/- 1 degC, 60 to 70% RH measured after 72 hr. The note with it: F11, 72 h.

Take `CNC(=O)c1cc(Cl)cc(C)c1NC(=O)c1cc(Br)nn1-c1ncccc1Cl` [CHLORANTRANILIPROLE]: the RatioLC50 in the experiment with Spodoptera exigua [1] is 12; in the experiment on Spodoptera exigua [2], 11.4; in the experiment with Spodoptera exigua [5], 137.4; in the experiment with Spodoptera exigua [6], 56.9; with Spodoptera exigua [7] it was 5. The LC50 in the experiment on Spodoptera exigua [3] was found to be 0.157 µg/mL (≈ 0.325 µM); with Spodoptera exigua [4], 1.88 µg/mL (≈ 3.9 µM); in the experiment with Spodoptera exigua [8] it was 0.0137 µg/mL (≈ 0.0284 µM); in the experiment on Spodoptera exigua [9], 0.78 µg/mL (≈ 1.61 µM).

Usually LC50 stands for the concentration lethal to half of the exposed cells or organisms.

Source of the values: ChEMBL document CHEMBL3045172, “Assessment of resistance risk in Spodoptera exigua (Hübner) (Lepidoptera: Noctuidae) to chlorantraniliprole” (2011).
